Source: patent publication US6087355A, “Cephalosporin antibiotics” (Microcide Pharmaceuticals, Inc., priority 1996, dated 2000)
Where a name gives a salt, the structure may show the parent alone. Read-outs that look alike come from different tables or passages of the source.

Experiments:
E. coli ATCC 25992 = assay: In vitro MIC, agar dilution; format: cell-based; conditions: Escherichia coli, ATCC25992, read-out: minimum inhibitory concentration (MIC)
Description: (§1) The compounds of the invention were evaluated against several β-lactamresistant (for example methicillin-resistant, vancomycin resistant, and/or ampicillin-resistant) bacteria strains by determining the minimum inhibitory concentration (MIC, μg/ml) of each compound with respect to each strain. The MIC, the lowest concentration of antibiotic which inhibits growth of the test organism, was determined by the agar dilution method.
(§2) To determine the MIC for bacterial isolates, the test compound was incorporated in a series of two-fold dilutions into liquified Mueller-Hinton agar. Upon solidification, a number of different bacterial strains were spot inoculated with a replicating device onto the agar surface.
(§3) Aliquots of antimicrobial agents were prepared in phosphate buffered saline (PBS) at pH 7.2. Tween 20 or DMSO was used as a solubilizing vehicle as needed. Standard methods of vortexing, sonicating and gentle heat were used to facilitate solubilizing the test agent. […] A 1.28 mg/mL stock solution was used with a subsequent highest working concentration of 128 μg/mL. Serial two-fold dilutions were done through ≤0.25 μg/mL. Each drug level was tested in duplicate. Two-fold drug dilutions were done in sterile 50 mL tubes with a final drug volume of 5 mL. Upon the addition of 45 mL of molten agar, a 10-fold dilution resulted. Two, 25 mL. plates were then poured into 15×150 mm square Petri plates with grids and allowed to harden.
(§4) A control plate with a reference drug, either cefotaxime, vancomycin or imipenem, was used as the positive growth control. Stock concentrations of reference antibiotics were prepared and frozen at -80° C. […] All test plates were used within 24 hours of preparation.
(§5) Satisfactory results were obtained where the inoculum contained about 10^4 colony forming units (cfu)±0.5 logs. Starting with pure cultures of the test isolates on agar plates, a few isolated colonies were transferred to a tube of nutrient broth and allowed to grow 4-6 hours at 35-36° C. to reach log-phase growth. Dropwise addition of the broth culture to PBS was done to match a 0.5 McFarland turbidity standard equal to 10^8 cfu/mL. This was further diluted ten-fold in PBS to reach a working inoculum concentration of 10^7 cfu/mL. When 1 μL of the working inoculum was applied to the agar surface a concentration of about 10^4 cfu per spot was obtained.
(§6) Disposable sterile 1 μL loops were used to inoculate test plates, with each isolate in a designated grid on the agar plate. An alternate method of inoculation involved the use of a replica plater, a device with 48 steel pins allowing the simultaneous inoculation of multiple isolates. After the spots had dried, the plates were incubated at 35-36° C. for 16-20 hours. Endpoints were assessed as the minimum inhibitory concentration (MIC) of antimicrobial agent.

E. faecalis ATCC 29212 = assay: In vitro MIC, agar dilution; format: cell-based; conditions: Enterococcus faecalis, ATCC29212, read-out: minimum inhibitory concentration (MIC)
Description: as §1, §2, §3, §4, §5, §6

E. faecalis VanB(Van^R) = assay: In vitro MIC, agar dilution; format: cell-based; conditions: Enterococcus faecalis, read-out: minimum inhibitory concentration (MIC)
Description: as §1, §2, §3, §4, §5, §6

E. faecium A491(Amp^R) = assay: In vitro MIC, agar dilution; format: cell-based; conditions: Enterococcus faecium, read-out: minimum inhibitory concentration (MIC)
Description: as §1, §2, §3, §4, §5, §6

E. faecium ATCC 35667 = assay: In vitro MIC, agar dilution; format: cell-based; conditions: Enterococcus faecium, ATCC35667, read-out: minimum inhibitory concentration (MIC)
Description: as §1, §2, §3, §4, §5, §6

E. faecium VanA(Van^R) = assay: In vitro MIC, agar dilution; format: cell-based; conditions: Enterococcus faecium, read-out: minimum inhibitory concentration (MIC)
Description: as §1, §2, §3, §4, §5, §6

P. aeruginosa ATCC 27853 = assay: In vitro MIC, agar dilution; format: cell-based; conditions: Pseudomonas aeruginosa, ATCC27853, read-out: minimum inhibitory concentration (MIC)
Description: as §1, §2, §3, §4, §5, §6

[1] = system: S. aureus 76(Meth^R)(lac^+); assay: In vitro MIC, agar dilution; format: cell-based; conditions: Staphylococcus aureus, read-out: minimum inhibitory concentration (MIC)
Description: as §1, §2, §3, §4, §5, §6

[2] = system: S. aureus ATCC 13709(Meth^S); assay: In vitro MIC, agar dilution; format: cell-based; conditions: Staphylococcus aureus, ATCC13709, S. aureus ATCC 13709(Meth^S); read-out: minimum inhibitory concentration (MIC)
Description: as §1, §2, §3, §4, §5, §6

S. aureus ATCC 29213 = assay: In vitro MIC, agar dilution; format: cell-based; conditions: Staphylococcus aureus, ATCC29213, read-out: minimum inhibitory concentration (MIC)
Description: as §1, §2, §3, §4, §5, §6

[3] = system: S. aureus ATCC 33593(Meth^R); assay: In vitro MIC, agar dilution; format: cell-based; conditions: Staphylococcus aureus, ATCC33593, read-out: minimum inhibitory concentration (MIC)
Description: as §1, §2, §3, §4, §5, §6

[4] = system: S. aureus PC1(Meth^S)(lac^+); assay: In vitro MIC, agar dilution; format: cell-based; conditions: Staphylococcus aureus, read-out: minimum inhibitory concentration (MIC)
Description: as §1, §2, §3, §4, §5, §6

[5] = system: S. aureus Spain #356(Meth^R); assay: In vitro MIC, agar dilution; format: cell-based; conditions: Staphylococcus aureus, read-out: minimum inhibitory concentration (MIC)
Description: as §1, §2, §3, §4, §5, §6

[6] = system: S. haemolyticus 05(Meth^R); assay: In vitro MIC, agar dilution; format: cell-based; conditions: Staphylococcus haemolyticus, read-out: minimum inhibitory concentration (MIC)
Description: as §1, §2, §3, §4, §5, §6

[7] = system: S. aureus Col(Meth^R)(lac^-); assay: In vitro MIC, agar dilution; format: cell-based; conditions: Staphylococcus aureus, read-out: minimum inhibitory concentration (MIC)
Description: as §1, §2, §3, §4, §5, §6
The S. aureus Col strain is a high-level PBP2a producer, whereas S. aureus Col 8A, its isogenic partner, lacks PBP2a.

[8] = system: S. aureus strain ATCC 13709 (methicillin-susceptible); assay: Murine model for lethal bacteremic peritonitis; format: in vivo, female Swiss-Webster mice; conditions: Staphylococcus aureus, 72 h
Description: Groups of 5 female Swiss-Webster mice (Simonsen, Gilroy, Calif.) each are challenged by the intraperitoneal (IP) route with tenfold increments of a bacterial inoculum. This permits calculation of the mean lethal dose (LD50) and the LD100. For preliminary evaluation of a new antibiotic, mice are challenged IP with an LD100 titer of bacteria. In two equal doses administered at the time of bacterial challenge and 2 hours later, groups of 10 mice each are treated subcutaneously with two-fold increments of the test drug and an antibiotic of known efficacy in mice and humans (i.e., positive control). Mice are observed for 72 h. Those alive at 72 h are considered long term survivors. The total drug dose in mg/kg that protects 50% of mice in a group from death is termed the mean protective dose (PD50). PD50 s are similarly determined for several pathogens. The quantitative endpoints for the new drug are then compared with those obtained with reference antibiotics.
Six ten-fold dilutions of inoculum suspended in 0.5 mL of sterilized 7% hog gastric mucin (Sigma) are injected IP in groups of 5 mice each. A control group of 5 mice receive mucin alone. Mice are observed for 72 h. Those alive at 72 h are considered long term survivors. The mean lethal dose (LD50) and 100% lethal dose (LD100) are determined by the probit test.
For antibiotic efficacy studies, mice are challenged IP with bacterial titers that will afford an LD100 for the test strain. In two equal doses administered at the time of bacterial challenge and 2 hours later, groups of 10 mice each are treated by the subcutaneous route (SC) with twofold increments of the test antibiotic; another group is treated similarly with a reference antibiotic of known efficacy in animals and man. Drug doses can range from 0.01 to 512 mg/kg. If the drug is poorly soluble, Tween 20 or propylene glycol will be employed to solubilize the drug. Animals are observed for 72 h. The 50% protective dose (PD50) is calculated in mg/kg by the probit method. The PD50 is the same as the 50% effective dose (ED50) and the 50% curative dose (CD50). Samples of blood from the hearts of all animals that die and from half the mice that survive are cultured on brain-heart infusion agar. Animals that received a protective dosage of the test drug will be alive at 72 h, although they may appear moderately ill to very ill during the observation period. […] Most of these mice will die within 6 to 48 h. Those alive at 72 h will be considered long term survivors.
(Compound numbers correspond to those in MIC tables; data reported for challenge with methicillin-susceptible S. aureus strain ATCC 13709.)

[9] = ATCC13709, sc, read-out: Survivors

| Structure (SMILES) | MIC (E. coli ATCC 25992) [µg/mL] | MIC (E. faecalis ATCC 29212) [µg/mL] | MIC (E. faecalis VanB(Van^R)) [µg/mL] | MIC (E. faecium A491(Amp^R)) [µg/mL] | MIC (E. faecium ATCC 35667) [µg/mL] | MIC (E. faecium VanA(Van^R)) [µg/mL] | MIC (P. aeruginosa ATCC 27853) [µg/mL] | MIC [1] [µg/mL] | MIC [2] [µg/mL] | MIC (S. aureus ATCC 29213) [µg/mL] | MIC [3] [µg/mL] | MIC [4] [µg/mL] | MIC [5] [µg/mL] | MIC [6] [µg/mL] | MIC [7] [µg/mL] | other results |
| --- | --- | --- | --- | --- | --- | --- | --- | --- | --- | --- | --- | --- | --- | --- | --- | --- |
| NCCSCc1cnccc1SC1=C(C(=O)O)N2C(=O)[C@@H](NC(=O)/C(=N\OC3CCCC3)c3csc(N)n3)[C@H]2SC1 [Cmpd 13, (7R)-7-[(Z)-2-(aminothiazol-4-yl)-2-(cyclopentyloxyimino)acetamido]-3-(3-aminoethylthiomethylpyrid-4-ylthio)-3-cephem-4-carboxylate, trifluoroacetic acid salt] | 8 | 1 | 2 | > 32 | 4 | 8 | > 32 | 8 | 2 | 2 | 8 | 2 | 8 | 8 | 4 | – |
| NCCCSc1cnccc1SC1=C(C(=O)O)N2C(=O)[C@@H](NC(=O)/C(=N\O)c3nc(N)sc3Cl)[C@H]2SC1 [Cmpd 51, (7R)-7-[(Z)-2-(2-amino-5-chlorothiazol-4-yl)-2-(hydroxyimino)acetamido]-3-(3-(3-aminopropylthio)pyrid-4-ylthio)-3-cephem-4-carboxylate, trifluoroacetic acid salt] | 8 | 0.13 | 0.25 | 8 | 0.13 | 1 | > 32 | 4 | 0.5 | 0.25 | 2 | 0.5 | 2 | 2 | 2 | – |
| NCCSc1cnccc1SC1=C(C(=O)O)N2C(=O)[C@@H](NC(=O)/C(=N\O)c3csc(N)n3)[C@H]2SC1 [Cmpd 20, (7R)-7-[(Z)-2-(aminothiazol-4-yl)-2-(hydroxyimino)acetamido]-3-(3-aminoethylthiopyrid-4-ylthio)-3-cephem-4-carboxylate, trifluoroacetic acid salt] | 4 | 1 | 0.5 | > 32 | 1 | 2 | > 32 | 4 | 0.5 | 0.5 | 2 | 0.5 | 4 | 4 | 2 | – |
| N=C(N)SCc1cnccc1SC1=C(C(=O)O)N2C(=O)[C@@H](NC(=O)/C(=N\OC3CCCC3)c3csc(N)n3)[C@H]2SC1 [Cmpd 8, (7R)-7-[(Z)-2-(aminothiazol-4-yl)-2-(cyclopentyloxyimino)acetamido]-3-(3-isothioureidomethylpyrid-4-ylthio)-3-cephem-4-carboxylate, trifluoroacetic acid salt] | 2 | 0.5 | 0.5 | 32 | 2 | 8 | > 32 | 4 | 1 | 1 | 4 | 1 | 4 | 4 | 2 | – |
| CN[C@H](CC(C)C)C(=O)N[C@H]1C(=O)N[C@@H](CC(N)=O)C(=O)N[C@H]2C(=O)N[C@H]3C(=O)N[C@H](C(=O)N[C@H](C(=O)O)c4cc(O)cc(O)c4-c4cc3ccc4O)[C@H](O)c3ccc(c(Cl)c3)Oc3cc2cc(c3O[C@@H]2O[C@H](CO)[C@@H](O)[C@H](O)[C@H]2O[C@H]2C[C@](C)(N)[C@H](O)[C@H](C)O2)Oc2ccc(cc2Cl)[C@H]1O [Vancomycin, vancomycin, reference compound] | – | – | – | – | – | – | – | – | – | – | – | – | – | – | – | ED50 ([8]; ATCC13709, sc): 1.94 mg/kg; responders at 0.625 mg/kg [8, 9]: 20%; responders at 1.25 mg/kg [8, 9]: 20%; responders at 2.5 mg/kg [8, 9]: 40%; responders at 5 mg/kg [8, 9]: 100%; responders at 10 mg/kg [8, 9]: 100% |
| CNCC(=O)NCCSCc1cnccc1SC1=C(C(=O)O)N2C(=O)[C@@H](NC(=O)/C(=N\O)c3csc(N)n3)[C@H]2SC1 [Cmpd 18, (7R)-7-[(Z)-2-(aminothiazol-4-yl)-2-(hydroxyimino)acetamido]-3-[3-(N-methylglycyl)aminoethylthiomethylpyrid-4-ylthio]-3-cephem-4-carboxylate, trifluoroacetic acid salt] | 8 | 0.25 | 0.5 | > 32 | 2 | 2 | > 32 | 8 | 1 | 1 | 4 | 1 | 8 | 8 | – | responders at 0.3125 mg/kg ([8]; ATCC13709, Dose 0.3125 mg/kg, SC, read-out: Survivors): 30%; responders at 0.625 mg/kg ([8]; ATCC13709, Dose 0.625 mg/kg, SC, read-out: Survivors): 20%; responders at 1.25 mg/kg ([8]; ATCC13709, Dose 1.25 mg/kg, SC, read-out: Survivors (converted)): 20%; responders at 2.5 mg/kg ([8]; ATCC13709, Dose 2.5 mg/kg, SC, read-out: Survivors): 20%; responders at 5 mg/kg ([8]; ATCC13709, Dose 5 mg/kg, SC, read-out: Survivors): 60%; ED50 ([8]; ATCC13709, SC, two equal doses, IP challenge, read-out: ED50): 4.44 mg/kg |
